For one assay, the system named is L1210 murine leukemia. The settings on record: cited from earlier work.
For a further assay, the system named is colon 38 tumor. The settings on record: murine model colon 38 tumor; cited from earlier work.
The subject of assay [1] is multiple sclerosis with relapses. The settings on record: once-daily oral 7 and 14 mg; cited from earlier work.
Assay [2] concerns spleen colony-forming units (CFU). The following applies: cited from earlier work.
Assay [3] has as its target T1, DHODH (Homo sapiens (Human), UniProt Q02127). The following applies: cited from earlier work.
Target sequence in this assay (Q02127 whole entry, species assumed): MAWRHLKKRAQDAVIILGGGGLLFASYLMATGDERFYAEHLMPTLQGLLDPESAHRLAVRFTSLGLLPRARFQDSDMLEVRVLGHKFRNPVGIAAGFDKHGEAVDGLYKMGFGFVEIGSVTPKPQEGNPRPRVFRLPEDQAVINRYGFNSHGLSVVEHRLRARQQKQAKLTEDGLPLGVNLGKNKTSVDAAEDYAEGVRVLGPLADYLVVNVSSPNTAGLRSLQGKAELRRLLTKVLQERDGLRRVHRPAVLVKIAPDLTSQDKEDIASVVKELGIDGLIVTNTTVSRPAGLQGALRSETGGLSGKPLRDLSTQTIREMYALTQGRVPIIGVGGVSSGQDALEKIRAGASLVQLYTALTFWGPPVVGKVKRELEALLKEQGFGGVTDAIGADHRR
The subject of assay [4] is experimental allergic encephalomyelitis (EAE). The following applies: oral, from 10 days after inoculation; Teriflunomide 3 and 10 mg/kg, dexamethasone 1 mg/kg; cited from earlier work.
The next assay has as its system Jurkat cells. Kind of assay: Measurement of cell proliferation (Jurkat cell), XTT assay. It counts as cell-based. The following applies: Homo sapiens, Jurkat; for inhibition at 1 µM: compound at 1 uM, read-out: % inh Jurkat_cells @ 1 uM (%). In a few lines:
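Jurkat T cells, 100,000 per well in RPMI with 10% FBS, exposed 72 h at 37 °C to serial compound dilutions (typically from 10 μM, half-log steps, triplicate) at 0.25–0.5% DMSO. Viability by XTT/PMS, A465 after 2 h, media background subtracted, untreated cells as 100%; EC50 from curve fit.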

The target of assay [5] is T1, DHODH. Description: DHODH activity assay (coupled enzyme assay, DCIP reduction, absorbance at 610 nm). The following applies: for inhibition at 10 µM: compound at 10 uM, read-out: inh @ 10 uM hDHODH (%). The class given is biochemical.
Target sequence in this assay (Q02127 whole entry): as the sequence (Q02127 whole entry, species assumed) above

In the case of `Cc1c(-c2ccc(-c3ccccc3F)cc2)nc2ccc(F)cc2c1C(=O)O` [Brequinar, 6-Fluoro-2-(2′-fluoro[1,1′-biphenyl]-4-yl)-3-methyl-4-quinolinecarboxylic Acid], in the assay on L1210 murine leukemia, the “anticancer activity towards L1210 murine leukemia” value was “exhibits an anticancer activity”. Also, in the assay with colon 38 tumor, the “potentiation of 5-fluorouracil antitumor activity” value is recorded as “potentiates 5-fluorouracil antitumor activity”.

With `C/C(O)=C(\C#N)C(=O)Nc1ccc(C(F)(F)F)cc1` [Teriflunomide], the “number of unique active lesions compared to placebo” value in assay [1] is reported as “reduced number of unique active lesions”. The CFU cycling entry in assay [2] is “inhibited CFU cycling”. In addition, at DHODH [3], the “fold greater inhibitor of DHODH than of protein tyrosine kinase” value is on record as 100-1,000 fold. In assay [4], the “onset of disease and symptom severity in EAE” value is “significant delay in the onset of disease and in symptom severity”.

Consider `C[C@@H]1C[C@H]2[C@@H]3CCC4=CC(=O)C=C[C@]4(C)[C@@]3(F)[C@@H](O)C[C@]2(C)[C@@]1(O)C(=O)CO` [dexamethasone], for which the “onset of disease and symptom severity in EAE” value in assay [4] is “significant delay in the onset of disease and in symptom severity”.

Regarding `O=C(O)c1cccc2[nH]c(-c3cccc(Oc4ccccc4)c3)nc12` [I9], the inhibition at 1 µM in the assay with Jurkat cells is 20%. In addition, at DHODH [5], the half-maximal inhibitory concentration (IC50) amounted to 7200 nM and the inhibition at 10 µM stood at 64%.

As to `O=Cc1ccc(-c2ccc(-c3nc4c(C(=O)O)cccc4[nH]3)cc2)cc1` [I181], the inhibition at 1 µM with Jurkat cells is 9.4%. In addition, on DHODH [5], the inhibition at 10 µM is 40.4%.

Regarding `COC(=O)c1cc(C)cc2[nH]c(-c3c(F)c(F)c(-c4ccccc4)c(F)c3F)nc12` [I176], the inhibition at 1 µM in the assay on Jurkat cells came to 7%. In addition, the inhibition at 10 µM on DHODH [5] was 45%.

The molecule `O=C(O)c1cccc2[nH]c(-c3ccc(-c4ccccc4)cc3)nc12` [I1] showed an EC50 in the assay on Jurkat cells (72 h, XTT cell viability) of 645 nM. For the same molecule, on DHODH [5], the IC50 turned out to be 795 nM and the inhibition at 10 µM came to 93.9%.

In the case of `Cc1cc(C(=O)O)c2[nH]c(-c3c(F)c(F)c(-c4cccc(O)c4)c(F)c3F)nc2c1` [I104], in the assay on Jurkat cells, the inhibition at 1 µM was 110%. For the same molecule, at DHODH [5], the IC50 was determined as 13.5 nM and the inhibition at 10 µM is 104%.

Consider `O=C(O)c1cccc2[nH]c(-c3c(F)c(F)c(-c4cccc(F)c4F)c(F)c3F)nc12` [I128], for which the inhibition at 1 µM in the assay with Jurkat cells is 64.9%. On DHODH [5], the midpoint of inhibition, the IC50, lay at 209 nM and the inhibition at 10 µM was determined as 73.1%.

What is called IC50 is the midpoint of a concentration-inhibition curve. Lower therefore signals higher potency. One may read the EC50 as the concentration that produces a half-maximal response.

Source of the values: patent US9006454B2, “Dihydroorotate dehydrogenase inhibitors” (Merck Serono S.A., priority 2009, dated 2015).
